The record followed here is patent publication US8772230B2, “Niacin and/or trigonelline as a muscle stimulant” (DSM IP Assets B.V., priority 2009, dated 2014).

Counter-ions that a name gives are not always drawn. Like-named read-outs stand apart in the source and are kept apart here. Marks after values point to notes of the source that are not given here.

For test [1], the system named is C2C12 mouse myoblast cells. To be noted: 10 μg/ml trigonelline monohydrate, 24 h, vs DMSO control.
Description: C2C12 cells were seeded on 96 well collagen-I plates (1600 cells/well) in growth medium (Dulbecco's modified Eagle's medium (DMEM) supplemented with 10% FBS, 2 mM L-Glutamine, 1 mM pyruvate, 50 IU/ml penicillin, 50 ug/ml streptavidin) until it reaches 100% confluency, approximately 3 days. […] Final DMSO concentration was standardized to 0.5% in all wells. Cells were cultured at 37° C., with 5% CO2.
Cells were fixed with 3.7% formaldehyde solution (37% formaldehyde diluted in growth medium, sterile filtered before used) for 10 min. at room temperature, and washed twice with 1×DPBS (1× Dulbecco's Phosphate Buffered Saline). After permeabilization with 0.1% TritonX-100 (diluted in 1×DPBS) for 2 min. the samples were blocked with 1×DPBS plus 2% BSA for 1 h. For myocyte labelling, the cells were labelled with 1:20 anti-alpha-myosin heavy chain antibody (MF-20) for 1 hour. The samples were washed with 1×DPBS and fluorescently labelled with secondary antibody (1:250 Alexa 488 IgG antimouse secondary antibody plus 1:2000 Hoechst in 1×DPBS) for 1 h. Finally, the cells were washed twice with 1×DPBS and plates were sealed for imaging on the ArrayScan® HCS Reader.
For image analysis myosin labelled myotubes were quantified on the ArrayScan HCS Reader using BioApplication Morphology Explorer.V2. Myocytes were selected with Object Area larger than 500 and Object Total Intensity greater than 1000.
In test [2] the test system is Female C57B1/6 mice. As to the method: To test the effect of trigonelline in non-trained animals, we performed a maximal endurance test after a treatment period of three weeks.
Female C57B1/6 mice were delivered at a weight of 18-20 g and acclimatized to the facilities for a period of one week. At the beginning of the study the animals were randomized into two groups (10 animals per group). All mice were housed separately and had access to feed and water ad libidum. Animals were treated for three weeks by gavage with trigonelline-hydrochloride at a daily dosage of 300 mg/kg/BW and the control group received vehicle.
For acclimatization, animals were placed on the treadmill for 5 minutes after two weeks. The maximal endurance test was performed two day before the section of the animals.

The subject of test [3] is Female C57B1/6 mice. To be noted: three weeks. An excerpt: The gastrocnemius muscle from one hindlimb of the animals was removed to induce compensatory hypertrophy in the plantaris and soleus muscles by multiple mechanisms. This model increases the muscle weight under muscle load/training. It simulates the human condition of an average human who is physically active or an athlete to support skeletal muscle function during exercise.
(§1) Female C57B1/6 mice were delivered at a weight of 18-20 g and acclimatized to the facilities for a period of one week. At the beginning of the study the animals were randomized into two groups (10 animals per group).
The animals were anesthetized and the left hindlimb of the animals was fixed. A small incision was made through the skin over the gastrocnemius muscle. The complete gastrocnemius muscle and its tendons were exposed. Both heads of the gastrocnemius muscle were carefully dissected from the underlying intact muscles and care was taken not to rupture nerves and vessels. The skin was closed with a silk and the animals were returned separately into their cages. […] All animals received an analgesic. Animals were treated for three weeks by gavage with trigonelline-hydrochloride at a daily dosage of 300 mg/kg BW and the control group received vehicle.

Test [4] relates to Female C57B1/6 mice. As to conditions: three weeks tail suspension.
From the text: To extend our in vitro and in vivo results we were also interested in testing the effects of trigonelline during skeletal muscle unloading (atrophy conditions). Therefore we conducted a second in vivo study were the hindlimbs of the animals were unloaded to induce skeletal muscle atrophy.
Tail suspension leads to skeletal muscle atrophy in the unloaded hindlimbs of the animals.
as §1
Thereafter the groups were placed in special cages and the hindlimbs were unloaded (tail suspension) for a duration of three weeks. All mice were housed separately and had access to feed and water ad libidum. Animals were treated for three weeks by gavage with trigonelline-hydrochloride at a daily dosage of 300 mg/kg/BW and the control group received vehicle.

[5] abbreviates: 300 mg/kg/BW daily by gavage, three weeks, untrained mice.
Setting [6] is: 300 mg/kg/BW daily by gavage, computer tomography.
[7] abbreviates: 300 mg/kg BW daily by gavage, computer tomography.
Where [8] appears, read: 300 mg/kg BW daily by gavage, non-operated leg.

On to `C[n+]1cccc(C(=O)[O-])c1` [Trigonelline], for which the “increase of differentiation in C2C12 mouse myoblast cells (number of myocytes)” value in test [1] is 36%. Moreover, the “wet weight of the gastrocnemius muscle vs control (in words)” value in the test with Female C57B1/6 mice [2] (three weeks treatment, untrained mice (FIG. 4)) is on record as “equal in both groups”. The “increase of wet weight of the non-operated gastrocnemius muscle (relative to the body weight)” value in the test on Female C57B1/6 mice [3] (trigonelline-hydrochloride 300 mg/kg BW daily, vs control (FIG. 2)) worked out at 7%.
Take `C[n+]1cccc(C(=O)[O-])c1` [Trigonelline-hydrochloride, trigonelline-hydrochloride]: in the test on Female C57B1/6 mice [2] (setting [5]), the “Gastrocnemius-Plantaris-Soleus muscle weight (whole leg)/body weight” value is 5.41 mg/g, the “M. gastrocnemius wet weight” value was determined as 100.66 mg, the “M. gastrocnemius wet weight/body weight” value is on record as 4.57 mg/g and the “M. plantaris wet weight” value was 12.12 mg. For the same compound, in the test with Female C57B1/6 mice [2] (setting [5]), the “M. plantaris wet weight/body weight” value was 0.55 mg/g, the “M. soleus wet weight” value is recorded as 6.29 mg and the “M. soleus wet weight/body weight” value is listed as 0.29 mg/g. Moreover, the Mean running time in the test with Female C57B1/6 mice [2] (300 mg/kg/BW daily by gavage, three weeks, untrained mice, treadmill) was 38.70 min. For the same compound, in the test on Female C57B1/6 mice [4] (300 mg/kg/BW daily by gavage), the “Gastrocnemius-Plantaris-Soleus muscle weight (whole leg)/body weight” value was 4.89* mg/g, the “M. gastrocnemius wet weight” value was 86.01* mg, the “M. gastrocnemius wet weight/body weight” value is recorded as 4.16* mg/g and the “M. plantaris wet weight” value worked out at 10.53 mg. In the test on Female C57B1/6 mice [4] (300 mg/kg/BW daily by gavage), the “M. plantaris wet weight/body weight” value is listed as 0.51* mg/g, the “M. soleus wet weight” value turned out to be 4.62 mg and the “M. soleus wet weight/body weight” value was found to be 0.22 mg/g. Also, in the test on Female C57B1/6 mice [4] (setting [6]), the Muscle cross-sectional area amounted to 27.8 mm^2 and the “Total leg cross-sectional area” value turned out to be 30.4 mm^2. For the same compound, the “increase of wet weight of the gastrocnemius muscle (relative to the body weight)” value in the test on Female C57B1/6 mice [4] (trigonelline-hydrochloride 300 mg/kg/BW daily, vs control (FIG. 3), statistically significant) amounted to 9%. Also, in the test on Female C57B1/6 mice [3] (setting [7]), the “Muscle cross-sectional area - non operated leg” value was determined as 32.15 mm^2, the “Muscle cross-sectional area - operated leg” value was found to be 23.72 mm^2, the “Total leg cross-sectional area - non operated leg” value is 35.05 mm^2 and the “Total leg cross-sectional area - operated leg” value is 26.79 mm^2. Further, in the test with Female C57B1/6 mice [3] (setting [8]), the “Gastrocnemius-Plantaris-Soleus muscle weight (whole leg)/body weight (non-operated leg)” value is listed as 5.50 mg/g, the “M. gastrocnemius wet weight (non-operated leg)” value came to 99.3 mg, the “M. gastrocnemius wet weight/body weight (non-operated leg)” value came out at 4.57 mg/g and the “M. plantaris wet weight (non-operated leg)” value is 13 mg. Besides, in the test on Female C57B1/6 mice [3] (setting [8]), the “M. plantaris wet weight/body weight (non-operated leg)” value was found to be 0.60 mg/g, the “M. soleus wet weight (non-operated leg)” value was 7.2 mg and the “M. soleus wet weight/body weight (non-operated leg)” value is listed as 0.33 mg/g.
